Results as given in patent US9770430B2, “Desferrioxamine-metal complexes for the treatment of immune-related disorders” (priority 2009, dated 2017).

Legend:
[1] = complex of desferrioxamine with the named metal ion; cited from earlier work
[2] = pH limit of the complex solution during preparation (loss of biological activities); assay type: physicochemical; details: pH above 6.1; solution reacts with air-containing CO2
[3] = test system: high energy diet-induced Type II diabetes; assay: Sand rat high energy diet Type II diabetes model, glucose tolerance test and cataract formation (Example 6); assay type: in vivo, sand rat (Psammomis obesus)
From the text: Sand rats (Psammomis Obesus) were used as a model for Type 2 diabetes. The sand rats transferred onto high energy diet develop a severe form of Type 2 diabetes, including high blood glucose level, increase in body weight, and cataract development (eye lens opacification).
The sand rats were divided into groups. The animals from the Group I received the standard diet, serving as a control, whereas animals from the other indicated groups received high energy diet, leading to diabetes development. The high-energy diet ed mice were either untreated, or treated with intra-peritoneal injections of 2.5 mg/kg body weight Ga-DFO, Zn-DFO, DFO alone, Zn, Ga or lipoic acid (LA), either twice or three times per week, as indicated, for the duration of the experiment. The blood glucose and body weight of the animals were monitored throughout the experiment.
Forty two sand rats were divided into seven groups, six animals in each. The animals from Group I received the standard diet and used as a control. The animals from the Groups II, III, IV, V, VI and VII received high energy diet, leading to diabetes development, while Groups III, IV and VII were treated with Zn-DFO, Ga-DFO and DFO alone, respectively. The Groups V and VI received Zn and Ga, in their chloride salt form, alone respectively. Administration of the different treatments was as described, and the experiment lasted for 53 days. Glucose tolerance test was performed at the end of experiment. The cataract formation was tested as well.

[4] = test system: high energy diet-induced Type II diabetes; assay: Sand rat high energy diet Type II diabetes model, body weight, blood glucose, glucose tolerance, cataract (Example 7); assay type: in vivo, sand rat (Psammomis obesus)
ovalbumin-induced asthma = assay: Ovalbumin-induced asthma, treatment of chronic asthma model (BAL cells, lung histology); assay type: in vivo, BALB/c mice; details: Mean ± SE
Protocol: • Twelve-week-old Balb/c mice were administered 10 μg (100 μl) ovalbumin (OVA) dissolved with 3 mg Al(OH)3 in 0.9% saline intraperitoneally (i.p.) on days 0, 7 and 14, and 10 μg (50 μl) OVA intranasally (i.n.) on days 20, 23, 25, 27, 29, 31, 34, 36, 37, 41, 43 and 45. For intranasal administration, mice were anesthetized with inhaled N-flurane and instilled with OVA i.n. with a micropipette. • Three-week-old BALB/c mice were sensitized (×3) with intra-peritoneal (i/p) injection (100 μl OVA solution, containing 0.3 mg OVA and 6.7 mg Al(OH)3, in 1 ml PBS) on days 0, 7 and 14. On days 14, 15, 17, 21 and 23 the mice were further sensitized with intranasal sprinklings (50 μl, each) of OVA in PBS solution containing 2 mg/ml OVA, as following: mice were anesthetized with inhaled N-flurane and instilled with OVA intra-nasally using a micropipette. Twenty-four hours after the last administration of OVA, the mice were sacrificed. Methacholine Challenge and Collection of Histologic Sections and Biochemical Samples
Either Zn-DFO, Ga-DFO, Zn-DFO and Ga-DFO 1:1 combination (herein metal complexes) or saline were administered as follows: on days −5, −1, 7 and 14, 1 mg/kg body weight metal complexes or saline were administered intraperitoneally (i.p.). On days 0, 6, 8, 13 and 15, 0.3 mg/kg body weight metal complexes or saline were administered i.p. On days 20, 23, 25, 27, 29, 31, 34, 36, 37, 41, 43 and 45, 0.3 mg/kg body weight metal complexes or saline were administered intranasally (i.n.). Twenty-four hours after the last sensitization, mice were anesthetized with urethane and the lungs were lavaged 4 times with 0.5 ml sterile PBS. Animals in the “control” group (non-asthmatic—saline treated, but not sensitized) (n=6) received saline injections and instillations, using the same regime as the asthmatic and treated animals. Animals of the “asthmatic” group (sensitized and saline-treated, rather than complex-treated) (n=6) received saline instead of the respective complex, under the same regime.
For the treatment of chronic asthma model, a similar experimental protocol was followed, with the following modifications: 1 mg/kg body weight metal complexes or saline were administered i.p. on day 0 (instead of days −5 and −1) and a further 0.3 mg/kg complexes or saline were administered on day 1. In this model, the effects of the complexes were investigated further by histological examination of lung sections stained with either haematoxylin-eosine or PAS/AB (periodic acid-Schiff/alcan blue).
To estimate the anti-asthmatic effect of the complexes the following parameters were measured: the concentration of ferritin in the lungs, the presence of inflammatory cells infiltration into the lungs, and the amounts of macrophages, eosinophils, lymphocytes and neutrophils in bronchoalveolar lavages (BALs).

[5] = test system: salicylate hydroxylation to 2,3-DHBA; assay: 2,3-DHBA assay in blood of high energy diet fed sand rats; assay type: in vivo, sand rat (Psammomis obesus); details: 2.5 mg/kg i.p. three times a week
Protocol: To measure 2,3-DHBA the animals were injected i.p. with 100 mg/kg salicylate in saline buffer. As a product of salicylate hydroxylation, the 2,3-DHBA was quantified using HPLC coupled with electrochemical detection (HPLC-ECD), using a Varian 5000 liquid chromatograph (Varian Analytical Instruments, Walnut Creek, Calif., USA) equipped with a Rheodyne 7125 sample injector (20 μl loop; Rheodyne L. P., Rohnert Park, Calif., USA). The column used for separation of salicylate and DHBA was a 250×4 mm LiChrospher 100RP-18, 5 μm (Merck, Darmstadt, Germany). The chromatograms were recorded using a PC-based data acquisition and processing system (EZChrom Elite, San-Ramon, Calif., USA).
Nineteen sand rats were divided into three groups. Group I (n=4) received a standard diet and was used as a control. Groups II (n=7) and III (n=8) received a high energy diet, leading to diabetes development. Group III was treated with 2.5 mg Zn-DFO i.p. per kg body weight three times a week, while Group II was injected with saline according to the same pattern. After the blood glucose and body weight monitoring for 63 days, glucose tolerance test was performed and blood level of 2,3-DHBA and catechols was also measured. As previously done, cataract formation was tested as well. […] The concentration of actin, Trx and TrxR were measured by Western Blotting, and the activity of Msr was analyzed by HPLC as described.

CC(=O)N(O)CCCCCNC(=O)CCC(=O)N([O-])CCCCCNC(=O)CCC(=O)N([O-])CCCCCN.[Zn+2] [Zn-DFO, Zinc-desferrioxamine]
relative stability constants for the complexes of desferrioxamine [1]: 10^11 | effect of higher pH on the Zn-DFO solution [2]: marked loss of the biological activities | three hours response to an orally-administered glucose dose, value above the zero (standard diet Group I) ([3]; 200 mg glucose per 100 g body weight, end of 53 day experiment, high energy diet): 20 mg/dL | Cataract formation ([3]; high energy diet (HE) sand rats, 53 days): 22% | blood glucose value ([4]; day 28, high energy diet, 2.5 mg/kg i.p. three times a week): 200 mg/dL | body weight gain ([4]; high energy diet, 2.5 mg/kg i.p. three times a week, 63 days): gained weight moderately | blood glucose value ([4]; toward the end of experiment, high energy diet, 2.5 mg/kg i.p. three times a week): 110 mg/dL | animals that did not develop cataract ([4]; treated group (Group III)): four | animals with grade 1-2 cataract in both eyes ([4]; treated group (Group III)): Two | animals with severe (grade 3) cataract ([4]; treated group (Group III)): one | glucose tolerance test, integration of total glucose levels ([4]; versus Group I (standard diet)): insignificantly higher value than Group I | Eosinophils in BAL fluid (ovalbumin-induced asthma): 0.3 ± 0.05^# 10^4 cells/ml | Lymphocytes in BAL fluid (ovalbumin-induced asthma): 0.2 ± 0.05^# 10^4 cells/ml | Macrophages in BAL fluid (ovalbumin-induced asthma): 3.0 ± 0.2^# 10^4 cells/ml | Neutrophils in BAL fluid (ovalbumin-induced asthma): 0.2 ± 0.05^# 10^4 cells/ml | Total WBC in BAL fluid (ovalbumin-induced asthma): 4.0 ± 0.3^# 10^4 cells/ml | 2,3-DHBA blood concentration [5]: maintained almost baseline values
